Laboratory results taken from patent US11446281B2, “Anti-inflammatory composition comprising acylhydrazone derivative” (KOREA RESEARCH INSTITUTE OF BIOSCIENCE AND BIOTECHNOLOGY, priority 2018, dated 2022).

Tests used:
[1] = system: K14 (Keratin 14), K1 (Keratin 1), FLG (Filaggrin gene) mRNA; assay: qPCR of epidermal hyperplasia markers in back skin tissue of dermatitis-induced mice; type: in vivo, HR-1 (hairless) mouse; details: FIG. 3B to 3D
From the text: When dermatitis is induced, a pathological symptom such as epidermal hyperplasia which thickens the skin is induced.

[2] = system: IL-4, IL-13 and IL-2 mRNA; assay: qPCR of inflammatory cytokine mRNA in ear skin tissue of dermatitis-induced mice; type: in vivo, mouse; details: FIG. 6A to 6C
From the text: Inflammatory cytokines most associated with the development of dermatitis, such as atopic dermatitis are known as IL-4 and IL-13 which are secreted primarily from Th2 T cells. In order to further identify the anti-inflammatory effect of the acylhydrazone derivative compound in mice with dermatitis induced by oxazolone in Example 4, an ear skin tissue was collected to quantify the mRNA levels of IL-2 secreted from Th2 T cells, along with those of IL-4 and IL-13.
Specifically, ear skin tissues were collected from dermatitis-induced mice prepared in Example 4 and crushed using a tissue disruptor. The crushed tissue powder was dissolved in a solution of Trizol reagent (Sigma company), and RNA was extracted using an RNeasy mini kit (Qiagen company). After reverse transcription of the extracted RNA with a cDNA using ImProm-II™ Reverse Transcription kit (Promega company), a level of cytokines present in a skin tissue was measured using a CFX96 Real-Time PCR Detection System (Bio-Rad company) via a qPCR method.

[3] = system: IL-4, IL-13 and IL-2 mRNA; assay: qPCR of inflammatory cytokine mRNA in back skin tissue of dermatitis-induced mice; type: in vivo, HR-1 (hairless) mouse; details: FIG. 2A to 2C; for inflammatory cytokine expression compared with Cyclosporine A group: comparison with test group treated with Cyclosporine A; for expression level of the inflammatory cytokine (IL-4, IL-13, IL-2 mRNA) in skin tissue: vs positive control treated with only oxazolone, qPCR
From the text: Inflammatory cytokines most associated with development of dermatitis such as atopic dermatitis are known as IL-4 and IL-13 which are secreted primarily from Th2 T cells. To further identify the anti-inflammatory effect of the acylhydrazone derivative compounds in mice in which dermatitis is induced by oxazolone. A mRNA level of IL-2 as secreted from Th2 T cells and mRNA levels of IL-4 and IL-13 as the cytokines most closely related to the development of dermatitis in the inflammatory tissue were quantified.
Specifically, a skin tissue was collected from the dermatitis-induced mice produced in Example 1 and crushed using a tissue disruptor. The crushed tissue powder was dissolved in a solution of Trizol reagent (Sigma company), and RNA was extracted therefrom using an RNeasy mini kit (Qiagen company). The extracted RNA was reverse transcribed into cDNA using an ImProm-II™ Reverse Transcription kit (Promega company). Then, using a CFX96™ Real-Time PCR Detection System (Bio-Rad company), levels of the cytokines present in the skin tissue was measured based on a qPCR (quantitative PCR) method.

K14 and K1 mRNA = assay: qPCR of epidermal hyperplasia markers in ear skin tissue of dermatitis-induced mice; type: in vivo, mouse; details: FIG. 8A and 8B
From the text: When dermatitis is induced, pathological symptoms such as epidermal hyperplasia which thickens the skin are induced.

[4] = system: mouse model having dermatitis induced by oxazolone (ear); assay: Visual identification of dermatitis inhibition, mice with oxazolone-induced dermatitis in ear; type: in vivo; details: 20 μl at 500 nM, total 5 times, 30 minutes after oxazolone, FIG. 4
Description: Specifically, 150 μl of 3% concentration of oxazolone was applied to an abdominal skin of a 6-week-old mouse to induce an immune response. 20 μl of the same compound diluted to 0.5% concentration was applied to the mouse's ear, total 5 times a day to induce an inflammatory reaction. Thereafter, at 30 minutes after the oxazolone application, 20 μl of each of the acylhydrazone derivative compounds was applied thereto at a concentration of 500 nM and total 5 times.
Moreover, the negative control treated only with ethanol as a solvent and the positive control treated only with oxazolone were reflected in the experiment. The number of mice in each test group was maintained at 10 or more, and the experiment was repeated twice.

[5] = system: phosphorylation of p65 (RelA), NF-κB signaling pathway; assay: Western blot of phosphorylated p65 in RAW macrophage cell line (NF-κB signaling pathway); type: cell-based, mice; details: RAW cells, with NF-κB inducing factors (tumor necrosis factor-α, lipopolysaccharide, or the like), 12 to 24 hours; Western blotting; FIG. 9
Description: To further identify the mechanism of action involved in the anti-inflammatory effect by the acylhydrazone derivative compound, RAW cell lines as mice-derived macrophage immune cell lines were incubated. We observed the effect of the compound according to the present disclosure on NF-κB (nuclear factor kappa-light-chain-enhancer of activated B cells) signaling pathway involved in the production of inflammatory cytokines. The NF-κB signaling pathway is involved in inflammatory reactions. In particular, it is known that when phosphorylation of p65 (RelA) is induced, phosphorylated p65 moves to the nucleus of immune cells and induces an expression of cytokines that cause inflammatory reactions.
Specifically, after incubating a predetermined amount of RAW cells (5×10^5 to 10×10^5 cells/well for a 6-well plate) in DMEM medium (containing 10% fetal calf serum), WCI-1004, WCI-1015, and WCI-1031 compounds together with factors (tumor necrosis factor-α, lipopolysaccharide, or the like) inducing the NF-κB signal transduction were applied thereto for 12 to 24 hours. A proteolytic inhibitor and a dephosphorylation inhibitor was added to RIPA lysis and extraction buffer (Thermofisher company). Protein was extracted from the RAW cells. The Western blotting process used a method commonly used in the technical field to which the present disclosure belongs, and an antibody specific to phosphorylated p65 employed a product from Cell Signaling Technology company.

[6] = system: ear skin tissue of dermatitis-induced mice; assay: Histopathological analysis (Hematoxylin and Eosin) of ear skin tissue; type: in vivo, mouse; details: H&E staining, FIG. 5
From the text: For pathological observation of the skin after completion of the application experiment, an ear skin tissue of each mouse was collected and stained with Hematoxylin and Eosin.

[7] = system: mouse model having dermatitis induced by oxazolone (back skin); assay: Visual identification of dermatitis inhibition, mice with oxazolone-induced dermatitis on back; type: in vivo, HR-1 (hairless) mouse; details: 150 μl at 500 nM applied 5 times a week, total 19 times, FIG. 1
Description: Specifically, 150 μl of 5% oxazolone (4-ethoxymethylene-2-phenyl-2-oxazolin-5-one) was applied to a back skin of a 6-week-old HR-1 (hairless) mouse, and then 150 μl of oxazolone (4-ethoxymethylene-2-phenyl-2-oxazolin-5-one) diluted into 0.1% was applied thereto 3 times a week, 11 times in total. Thus, the back skin inflammatory reaction was induced. Thereafter, 150 μl of the acylhydrazone derivative compound at a concentration of 500 nM was applied thereto 5 times a week, a total of 19 times. […] A negative control treated with only ethanol as a solvent and a positive control treated with only oxazolone were reflected in the test. The number of mice in each test group was maintained at 10 or more, and the experiment was repeated twice.

Structure (SMILES) | mRNA expression levels of K14, K1 and FLG (epithelial hyperplasia) [1] | level of cytokine expression (IL-4, IL-13, IL-2 mRNA) in ear skin tissue [2] | inflammatory cytokine expression compared with Cyclosporine A group [3] | expression level of the inflammatory cytokine (IL-4, IL-13, IL-2 mRNA) in skin tissue [3] | expression levels of K14 and K1 (epithelial hyperplasia) (K14 and K1 mRNA) | skin condition (visual), skin inflammatory reaction [4] | phosphorylation of p65 (RelA) [5] | entire thickness of the skin [6] | thickness of the epithelium [6] | skin condition (visual), skin inflammatory response [7]
CCOC(=O)Cn1c(C)c(/C=N/NC(=O)c2cc3c(ccc4ccccc43)o2)c2ccccc21 [WCI-1004, ethyl(2-methyl-3(E)-{[(naphtho[2,1-b]furan-2-ylcarbonyl)hydrazono]methyl}-1H-indole-1-yl)acetate] | restored to normal levels | 50 % of the cytokine expression level of the positive control | lower levels of inflammatory cytokine expression than that in the skin tissue of the test group treated with Cyclosporine A | significantly reduced | restored to a normal level | a skin condition very similar to that of the negative control | effectively suppressed | reduced to a thickness very similar to that of the negative control | reduced to a thickness very similar to that of the negative control | skin conditions very similar to those of the negative control
Cc1c(/C=N/NC(=O)c2cc3c(ccc4ccccc43)o2)c2ccccc2n1C [WCI-1015] | restored to normal levels | 50 % of the cytokine expression level of the positive control | lower levels of inflammatory cytokine expression than that in the skin tissue of the test group treated with Cyclosporine A | significantly reduced | restored to a normal level | a skin condition very similar to that of the negative control | effectively suppressed | reduced to a thickness very similar to that of the negative control | reduced to a thickness very similar to that of the negative control | skin conditions very similar to those of the negative control
COC(=O)Cn1c(C)c(/C=N/NC(=O)c2cc3c(ccc4ccccc43)o2)c2ccccc21 [WCI-1031, methyl(E)-2-(2-methyl-3-((2-(naphtho[2,1-b]furan-2-carbonyl)hydrazono)methyl)-1H-indole-1-yl)acetate] | restored to normal levels | 50 % of the cytokine expression level of the positive control | lower levels of inflammatory cytokine expression than that in the skin tissue of the test group treated with Cyclosporine A | significantly reduced | restored to a normal level | a skin condition very similar to that of the negative control | effectively suppressed | reduced to a thickness very similar to that of the negative control | reduced to a thickness very similar to that of the negative control | skin conditions very similar to those of the negative control
